± gives the standard deviation of the averaged measurements.
How the values were obtained:
ETOPOSIDE = compound: COc1cc([C@@H]2c3cc4c(cc3[C@@H](O[C@@H]3O[C@@H]5CO[C@@H](C)O[C@H]5[C@H](O)[C@H]3O)[C@H]3COC(=O)[C@H]23)OCO4)cc(OC)c1O [ETOPOSIDE]; assay: surviving fraction relative to DMSO-only wells; higher = less growth inhibition; conditions: exposure time: 5 days
Procedure, shortened: (§1)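 For each tumour cell line, log-phase cells were put into 384-well plates at 250–500 cells per well, then after 24 hours exposed continuously for five days to inhibitors at 0.5, 1, 5, 10, 50, 100, 500 and 1000 nM. Viability was assessed by CellTiter-Glo luminescence, with surviving fraction expressed relative to the median of DMSO-only wells. Lines were screened three times and retained only if replicate Pearson r exceeded 0.7 and median Z' exceeded 0.3.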

MK2206 = compound: NC1(c2ccc(-c3nc4ccn5c(=O)[nH]nc5c4cc3-c3ccccc3)cc2)CCC1 [MK2206]; assay: as above; conditions: exposure time: 5 days
Procedure, shortened: as §1

| Test System | surviving fraction (ETOPOSIDE; 0.5 nM) | surviving fraction (ETOPOSIDE; 1 nM) | surviving fraction (ETOPOSIDE; 5 nM) | surviving fraction (ETOPOSIDE; 10 nM) | surviving fraction (ETOPOSIDE; 50 nM) | surviving fraction (ETOPOSIDE; 100 nM) | surviving fraction (ETOPOSIDE; 500 nM) | surviving fraction (ETOPOSIDE; 1000 nM) | surviving fraction (MK2206; 0.5 nM) | surviving fraction (MK2206; 1 nM) | surviving fraction (MK2206; 5 nM) | surviving fraction (MK2206; 10 nM) | surviving fraction (MK2206; 50 nM) | surviving fraction (MK2206; 100 nM) | surviving fraction (MK2206; 500 nM) | surviving fraction (MK2206; 1000 nM) |
| --- | --- | --- | --- | --- | --- | --- | --- | --- | --- | --- | --- | --- | --- | --- | --- | --- |
| SUM149 BREAST | 1.16 ± 0.04 | 1.17 ± 0.061 | 1.21 ± 0.048 | 1.13 ± 0.077 | 0.753 ± 0.044 | 0.563 ± 0.025 | 0.156 ± 0.0049 | 0.153 ± 0.0044 | 1.04 ± 0.049 | 1.05 ± 0.038 | 1.02 ± 0.058 | 0.997 ± 0.098 | 0.937 ± 0.036 | 0.953 ± 0.029 | 0.932 ± 0.082 | 0.872 ± 0.055 |
| SUM149.B1*.S BREAST | 1.1 ± 0.042 | 1.1 ± 0.053 | 1.11 ± 0.017 | 1.12 ± 0.07 | 1.08 ± 0.03 | 1.043 ± 0.0053 | 0.445 ± 0.0065 | 0.343 ± 0.013 | 1.08 ± 0.057 | 1.14 ± 0.093 | 1.12 ± 0.034 | 1.09 ± 0.076 | 1.05 ± 0.058 | 1.07 ± 0.045 | 0.998 ± 0.056 | 1.06 ± 0.036 |
| SUM159 BREAST | 1.14 ± 0.18 | 1.08 ± 0.08 | 1.1 ± 0.11 | 1.07 ± 0.058 | 1.06 ± 0.055 | 0.977 ± 0.079 | 0.364 ± 0.086 | 0.187 ± 0.027 | 1.08 ± 0.04 | 1.093 ± 0.0081 | 1.07 ± 0.024 | 1.11 ± 0.03 | 1.06 ± 0.015 | 1.08 ± 0.02 | 1.09 ± 0.029 | 1.08 ± 0.018 |
| SYO1 SYNOVIAL | 0.994 ± 0.042 | 0.997 ± 0.059 | 0.975 ± 0.027 | 0.933 ± 0.023 | 0.7 ± 0.044 | 0.505 ± 0.051 | 0.106 ± 0.024 | 0.0784 ± 0.014 | 0.95 ± 0.012 | 0.975 ± 0.05 | 0.953 ± 0.022 | 1 ± 0.028 | 0.905 ± 0.032 | 0.885 ± 0.066 | 0.748 ± 0.051 | 0.702 ± 0.036 |
| T47D BREAST | 1.06 ± 0.042 | 1.04 ± 0.03 | 1.07 ± 0.09 | 1.02 ± 0.021 | 1.03 ± 0.047 | 0.96 ± 0.068 | 0.525 ± 0.036 | 0.46 ± 0.023 | 1.04 ± 0.03 | 1.06 ± 0.064 | 1 ± 0.036 | 0.945 ± 0.027 | 0.755 ± 0.032 | 0.654 ± 0.042 | 0.482 ± 0.021 | 0.449 ± 0.027 |
| U2OS BONE | 1.03 ± 0.034 | 1.02 ± 0.062 | 1.05 ± 0.025 | 1.047 ± 0.009 | 1.022 ± 0.0045 | 0.867 ± 0.057 | 0.56 ± 0.026 | 0.546 ± 0.021 | 0.992 ± 0.017 | 1.03 ± 0.051 | 1.03 ± 0.027 | 1.05 ± 0.026 | 0.991 ± 0.015 | 0.941 ± 0.035 | 0.815 ± 0.0053 | 0.731 ± 0.055 |
| VCAP PROSTATE | 1.19 ± 0.16 | 1.07 ± 0.032 | 1.14 ± 0.11 | 1.14 ± 0.088 | 1.07 ± 0.1 | 1.05 ± 0.092 | 0.541 ± 0.063 | 0.421 ± 0.049 | 0.898 ± 0.12 | 0.848 ± 0.073 | 0.928 ± 0.069 | 0.936 ± 0.054 | 0.834 ± 0.13 | 0.754 ± 0.093 | 0.507 ± 0.066 | 0.362 ± 0.017 |
| VP229 BREAST | 1.11 ± 0.042 | 1.09 ± 0.16 | 1.14 ± 0.24 | 1.19 ± 0.075 | 1.17 ± 0.062 | 1.13 ± 0.064 | 1.18 ± 0.14 | 1.15 ± 0.084 | 1.1 ± 0.13 | 1.19 ± 0.16 | 1.19 ± 0.14 | 1.18 ± 0.15 | 1.07 ± 0.14 | 0.909 ± 0.18 | 0.713 ± 0.055 | 0.658 ± 0.12 |
| YAMATO SYNOVIAL | 1.3 ± 0.12 | 1.32 ± 0.063 | 1.19 ± 0.051 | 1.22 ± 0.18 | 1.26 ± 0.018 | 1.11 ± 0.096 | 0.636 ± 0.014 | 0.575 ± 0.031 | 1.13 ± 0.13 | 1.12 ± 0.023 | 1.16 ± 0.1 | 1.08 ± 0.063 | 0.84 ± 0.022 | 0.708 ± 0.036 | 0.521 ± 0.01 | 0.482 ± 0.027 |
| ZR751 BREAST | 1.1 ± 0.04 | 1.1 ± 0.048 | 1.02 ± 0.067 | 1.05 ± 0.076 | 0.996 ± 0.022 | 0.968 ± 0.089 | 0.901 ± 0.078 | 0.7397 ± 0.007 | 0.962 ± 0.026 | 1.04 ± 0.088 | 0.678 ± 0.065 | 0.734 ± 0.064 | 0.407 ± 0.024 | 0.424 ± 0.027 | 0.308 ± 0.029 | 0.317 ± 0.029 |

— the supplement of paper PMC6045584
